# Results reported in PubChem BioAssay (NCI).
#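 Five compound concentrations were applied to cells in 96-well plates for 48 hours; endpoints were derived by simple linear interpolation of the resulting dose-response curve. GI50 is the concentration that inhibits growth by half. The concentration for full growth arrest is given as TGI.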
# Key:
# Test in all cases: DTP human tumour cell line panel, 48 h
# [1] = test system: 786-0 renal
# [2] = test system: A498 renal
# [3] = test system: A549 NSCLC
# [4] = test system: ACHN renal
# [5] = test system: BT-549 breast
# [6] = test system: CAKI-1 renal
# [7] = test system: CCRF-CEM leukemia
# [8] = test system: COLO 205 colon
# [9] = test system: DU-145 prostate
# [10] = test system: EKVX NSCLC
# [11] = test system: HCC-2998 colon
# [12] = test system: HCT-116 colon
# [13] = test system: HCT-15 colon
# [14] = test system: HL-60(TB) leukemia
# [15] = test system: HOP-62 NSCLC
# [16] = test system: HOP-92 NSCLC
# [17] = test system: HS 578T breast
# [18] = test system: HT29 colon
# [19] = test system: IGROV1 ovarian
# [20] = test system: K-562 leukemia
# [21] = test system: KM12 colon
# [22] = test system: LOX IMVI melanoma
# [23] = test system: M14 melanoma
# [24] = test system: MALME-3M melanoma
# [25] = test system: MCF7 breast
# [26] = test system: MDA-MB-231 breast
# [27] = test system: MDA-MB-435
# [28] = test system: MOLT-4 leukemia
# [29] = test system: NCI-H226 lung
# [30] = test system: NCI-H23 lung
# [31] = test system: NCI-H460 lung
# [32] = test system: NCI-H522 lung
# [33] = test system: NCI/ADR-RES ovarian
# [34] = test system: OVCAR-3 ovarian
# [35] = test system: OVCAR-4 ovarian
# [36] = test system: OVCAR-5 ovarian
# [37] = test system: OVCAR-8 ovarian
# [38] = test system: PC-3 prostate
# [39] = test system: RPMI-8226 leukemia
# [40] = test system: RXF 393 renal
# [41] = test system: SF-268 CNS
# [42] = test system: SF-295 CNS
# [43] = test system: SF-539 CNS
# [44] = test system: SK-MEL-2 melanoma
# [45] = test system: SK-MEL-28 melanoma
# [46] = test system: SK-MEL-5 melanoma
# [47] = test system: SK-OV-3 ovarian
# [48] = test system: SN12C renal
# [49] = test system: SNB-19 CNS
# [50] = test system: SNB-75 CNS
# [51] = test system: SR leukemia
# [52] = test system: SW-620 colon
# [53] = test system: T-47D breast
# [54] = test system: TK-10 renal
# [55] = test system: U251 CNS
# [56] = test system: UACC-257 melanoma
# [57] = test system: UACC-62 melanoma
# [58] = test system: UO-31 renal
# [59] = test system: MDA-N
smiles,measurement,setting,value
O=C(CCCCN1CCN(CCCCC(=O)Nc2ccccc2C#C/C=C\C#Cc2ccccc2C(F)(F)F)CC1)Nc1ccccc1C#C/C=C\C#Cc1ccccc1C(F)(F)F,GI50,[1],9.8 µM
same,TGI,[1],18.3 µM
same,GI50,[2],11.7 µM
same,TGI,[2],22.9 µM
same,GI50,[3],12.4 µM
same,TGI,[3],37.6 µM
same,GI50,[4],20.9 µM
same,TGI,[4],> 50 µM
same,GI50,[5],8.94 µM
same,TGI,[5],17.4 µM
same,GI50,[6],> 50 µM
same,TGI,[6],> 50 µM
same,GI50,[7],6.02 µM
same,TGI,[7],17 µM
same,GI50,[8],38.3 µM
same,TGI,[8],> 50 µM
same,GI50,[9],17.4 µM
same,TGI,[9],> 50 µM
same,GI50,[10],18 µM
same,TGI,[10],> 50 µM
same,GI50,[11],9.14 µM
same,TGI,[11],17.5 µM
same,GI50,[12],9.18 µM
same,TGI,[12],17.8 µM
same,GI50,[13],10.5 µM
same,TGI,[13],23.8 µM
same,GI50,[14],11.9 µM
same,TGI,[14],24.6 µM
same,GI50,[15],12.2 µM
same,TGI,[15],32 µM
same,GI50,[16],4.14 µM
same,TGI,[16],11.5 µM
same,GI50,[17],11.2 µM
same,TGI,[17],25.3 µM
same,GI50,[18],7.11 µM
same,TGI,[18],26.2 µM
same,GI50,[19],9.37 µM
same,TGI,[19],26.2 µM
same,GI50,[20],8.04 µM
same,TGI,[20],34.8 µM
same,GI50,[21],13.2 µM
same,TGI,[21],33 µM
same,GI50,[22],10.1 µM
same,TGI,[22],20.2 µM
same,GI50,[23],11.7 µM
same,TGI,[23],25.9 µM
same,GI50,[24],12.2 µM
same,TGI,[24],29.5 µM
same,GI50,[25],9.97 µM
same,TGI,[25],23 µM
same,GI50,[26],6.23 µM
same,TGI,[26],16 µM
same,GI50,[27],11.7 µM
same,TGI,[27],22 µM
same,GI50,[28],8.55 µM
same,TGI,[28],27 µM
same,GI50,[29],40.7 µM
same,TGI,[29],> 50 µM
same,GI50,[30],13.8 µM
same,TGI,[30],38.9 µM
same,GI50,[31],11.2 µM
same,TGI,[31],25.5 µM
same,GI50,[32],9.19 µM
same,TGI,[32],20.4 µM
same,GI50,[33],9.64 µM
same,TGI,[33],20 µM
same,GI50,[34],10.6 µM
same,TGI,[34],21.8 µM
same,GI50,[35],16.2 µM
same,TGI,[35],49.5 µM
same,GI50,[36],14.4 µM
same,TGI,[36],> 50 µM
same,GI50,[37],12.2 µM
same,TGI,[37],28.5 µM
same,GI50,[38],13.9 µM
same,TGI,[38],> 50 µM
same,GI50,[39],7.46 µM
same,TGI,[39],19.1 µM
same,GI50,[40],9.81 µM
same,TGI,[40],23.5 µM
same,GI50,[41],12.3 µM
same,TGI,[41],32.9 µM
same,GI50,[42],19 µM
same,TGI,[42],> 50 µM
same,GI50,[43],10.2 µM
same,TGI,[43],19.3 µM
same,GI50,[44],12.4 µM
same,TGI,[44],29.9 µM
same,GI50,[45],9.76 µM
same,TGI,[45],18.4 µM
same,GI50,[46],9.26 µM
same,TGI,[46],16.9 µM
same,GI50,[47],18.7 µM
same,TGI,[47],> 50 µM
same,GI50,[48],17.6 µM
same,TGI,[48],> 50 µM
same,GI50,[49],11.7 µM
same,TGI,[49],32.1 µM
same,GI50,[50],10.3 µM
same,TGI,[50],26.9 µM
same,GI50,[51],3.23 µM
same,TGI,[51],16.6 µM
same,GI50,[52],9.39 µM
same,TGI,[52],18.4 µM
same,GI50,[53],13.2 µM
same,TGI,[53],29.2 µM
same,GI50,[54],16.6 µM
same,TGI,[54],36 µM
same,GI50,[55],9.01 µM
same,TGI,[55],18.9 µM
same,GI50,[56],10.8 µM
same,TGI,[56],22.5 µM
same,GI50,[57],11 µM
same,TGI,[57],22.8 µM
same,GI50,[58],11.8 µM
same,TGI,[58],48 µM
CCCCCCCCCCCCOCC(COP(=O)(O)OCCN=[N+]=[N-])OC(=O)CCCCCCCCCCC (centres undefined),TGI,[1],> 100 µM
same,TGI,[2],> 100 µM
same,TGI,[3],> 100 µM
same,TGI,[4],> 100 µM
same,TGI,[6],> 100 µM
same,TGI,[8],> 100 µM
same,TGI,[9],> 100 µM
same,TGI,[11],> 100 µM
same,TGI,[12],> 100 µM
same,TGI,[13],> 100 µM
same,TGI,[15],> 100 µM
same,TGI,[16],> 100 µM
same,TGI,[18],> 100 µM
same,TGI,[20],> 100 µM
same,TGI,[21],> 100 µM
same,TGI,[23],> 100 µM
same,TGI,[24],> 100 µM
same,TGI,[25],> 100 µM
same,TGI,[26],> 100 µM
same,TGI,[27],> 100 µM
same,TGI,[59],> 100 µM
same,TGI,[28],> 100 µM
same,TGI,[30],> 100 µM
same,TGI,[31],> 100 µM
same,TGI,[32],> 100 µM
same,TGI,[33],> 100 µM
same,TGI,[34],> 100 µM
same,TGI,[35],> 100 µM
same,TGI,[36],> 100 µM
same,TGI,[37],> 100 µM
same,TGI,[38],> 100 µM
same,TGI,[39],> 100 µM
same,TGI,[40],> 100 µM
same,TGI,[41],> 100 µM
same,TGI,[42],> 100 µM
same,TGI,[43],> 100 µM
same,TGI,[44],> 100 µM
same,TGI,[45],> 100 µM
same,TGI,[46],> 100 µM
same,TGI,[47],> 100 µM
same,TGI,[48],> 100 µM
same,TGI,[49],> 100 µM
same,TGI,[52],> 100 µM
same,TGI,[53],> 100 µM
same,TGI,[54],> 100 µM
same,TGI,[55],> 100 µM
same,TGI,[57],> 100 µM
same,TGI,[58],> 100 µM
